# Earlier results in US7592342B2, “Quinoxaline derivatives as PI3 kinase inhibitors” (SmithKline Beecham Corporation, priority 2007, dated 2009).
# Target: CK2 protein kinase (Homo sapiens, UniProt P68400)
# Conditions: LY294002, literature
# Chain of CK2 protein kinase (P68400 whole entry): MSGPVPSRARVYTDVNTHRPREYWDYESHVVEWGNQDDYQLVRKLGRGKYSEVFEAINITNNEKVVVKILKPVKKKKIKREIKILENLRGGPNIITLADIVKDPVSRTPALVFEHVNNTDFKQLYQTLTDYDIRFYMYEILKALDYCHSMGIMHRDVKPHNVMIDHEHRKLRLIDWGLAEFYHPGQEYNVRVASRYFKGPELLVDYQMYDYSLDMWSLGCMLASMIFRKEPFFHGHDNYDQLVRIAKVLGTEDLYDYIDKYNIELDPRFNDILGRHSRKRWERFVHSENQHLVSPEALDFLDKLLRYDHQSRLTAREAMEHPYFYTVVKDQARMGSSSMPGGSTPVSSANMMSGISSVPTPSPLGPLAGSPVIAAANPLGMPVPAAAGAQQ
smiles,measurement,value
O=c1cc(N2CCOCC2)oc2c(-c3ccccc3)cccc12 [LY294002],IC50,5 to 10 µM
